“Also recorded” adds a separate entry of the source.
Assays:
[1] = test system: HCT116; experiment: Cell cycle analysis by flow cytometry, HCT116; format: cell-based; conditions: for G2/M-phase / S-phase: viable cells, DAPI
Experimental: (§1) Cells were irradiated using ^137Cs gamma-ray photons at a dose-rate of ~1 Gy/min (Best Theratronics Gammacell® 40Exactor, Springfield, USA).
(§2) Cells were collected and fixed in 70% ethanol at 6, 12, 24, 48, 72, and 96 h post-irradiation and stored at −20°C. For cell cycle analyses, 6, 12, 24, and 48 h samples were rehydrated and washed twice with PBS and stained with DAPI (Sigma Aldrich Sweden, Stockholm, Sweden) using 1 μg/ml for 30 min. 24, 48, 72, and 96 h samples were stained with caspase-3 and Noxa (ab13847 (1:500) and ab13654 (1:1,000), AbCam, Cambridge, UK) overnight at 4°C, followed by incubation with fluorescent labeled secondary antibodies for 90 min (ab 1:400) at room temperature. Analyses were performed using a BD LSR Fortessa flow cytometer (Becton Dickinson Biosciences, San Jose, USA). Data analyses for cleaved caspase-3 and Noxa were performed with BD FACSDiVa (Becton Dickinson Biosciences, San Jose, USA), while cell cycle analyses of exclusively viable cells were performed using FlowJo (Becton, Dickinson Biosciences, San Jose, USA). Coefficient of variation (CV) values, were below seven for all samples.

[2] = test system: p53; experiment: Western Blot p53 expression, UM-SCC-74B; format: cell-based, human; conditions: n ≥ 3
Experimental: as §1
(§3) Whole-cell lysates were prepared according to standard protocols. Protein concentrations were measured using a DeNovix DS-11 spectrophotometer (DeNovix Inc., Wilmington, DE, USA). Samples were separated on 4–12% Bis-Tris SDS gels and transferred to a nitrocellulose membrane (ThermoFisher Scientific, Uppsala, Sweden) by wet-transfer blotting. The membrane was blocked for 1 h in PBS with 5% BSA before incubation with primary antibodies targeting p53, caspase-3, NaK-ATPase and GLB1 (DO-1 (ab1101), ab13847, ab76020 and ab128993, AbCam, Cambridge, UK) and β-actin (A5441, Sigma Aldrich Sweden, Stockholm, Sweden) at 4°C overnight. After washing with PBS with 1% Tween-20, the membrane was incubated with respective and species-specific Horse Radish Peroxidase-labeled secondary antibody (ThermoFisher Scientific, Waltham, MA, USA) and stained with electro-chemiluminescent solution (Immobilon, Millipore, Bedford, USA).

[3] = test system: GLB-1; experiment: Western Blot GLB-1 expression, UM-SCC-74B; format: cell-based, human; conditions: 2 Gy + 20 μM PM2, 72 h, n ≥ 3
Experimental: as §1, §3

[4] = test system: GLB-1; experiment: Western Blot GLB-1 expression, HCT116; format: cell-based; conditions: 2 Gy + 20 μM PM2, n ≥ 3
Experimental: as §1, §3

[5] = test system: Noxa; experiment: Flow cytometry Noxa expression, UM-SCC-74B; format: cell-based, human; conditions: 20 μM PM2, 72 h
Experimental: as §1, §2

[6] = test system: Noxa; experiment: Flow cytometry Noxa expression, HCT116; format: cell-based
Experimental: as §1, §2

[7] = test system: UM-SCC-74B spheroids; experiment: 3D tumor spheroid growth, UM-SCC-74B; format: cell-based, human; conditions: for Maximum time to termination / Median time to termination: volume >600 μm^3; for CDI: CDI = AB/(A*B)
Experimental: as §1
For liquid overlay 3D spheroid formation, 96-well plates were coated with 0.15% agarose dissolved in PBS with 1% penicillin/streptomycin. 1000 UM-SCC-74B cells/well were seeded and incubated at 37°C for 3 days prior to treatment. […] Half of the medium was replaced every 48 h for the first 10 days, thereafter every 4 days. […] Images were obtained every 2–4 days using a Canon EOS 700D camera mounted on an inverted Nikon Diaphot-TMD microscope. […] Each spheroid was normalized to its own starting volume at the start of treatment (Day 0, growth ratio = 1). Spheroids exceeding a volume of 600 μm^3 were excluded (i.e., terminated) from further analyses as 600 μm^3 is the maximum size possible to obtain in these settings with uncompromised growth conditions.
GraphPad Prism version 6.07 (GraphPad Software, San Diego, USA) was used for data processing and analysis. p-values were determined using unpaired student's t-test for comparison between two groups or one-way ANOVA followed by Tukey's multiple comparisons test, with p < 0.05 (^*), p < 0.01 (^**), p < 0.001 (^***), and p < 0.0001 (^****). For XTT assays cell viability was normalized for irradiated and unirradiated samples separately. […] CDI ≤ 0.7 equaled significant synergistic effect, CDI ≤ 1 equaled additive effect and CDI > 1 equaled antagonistic effect ([29]).

[8] = test system: wt p53 tumors; conditions: mice, PM2 combined with radiotherapy; cited from earlier work
[9] = Combination 2 Gy + 20 μM PM2, 6 h
[10] = Combination 2 Gy + 20 μM PM2, 12 h
[11] = Combination 2 Gy + 20 μM PM2, 24 h
[12] = Combination 2 Gy + 20 μM PM2, 48 h

CC(=O)N[C@H](C(=O)N[C@@H](CO)C(=O)N[C@@H](Cc1ccccc1)C(=O)N[C@]1(C)CCCCCCC=CCCC[C@@](C)(C(N)=O)NC(=O)[C@H](CC(C)C)NC(=O)[C@H](CC(C)C)NC(=O)[C@H](C)NC(=O)[C@H](Cc2c[nH]c3ccccc23)NC(=O)[C@H](Cc2ccc(O)cc2)NC(=O)[C@H](CCC(=O)O)NC1=O)[C@@H](C)O [PM2]
G2/M-phase ([1]; 20 μM PM2 alone, 6 h): 19.4%
S-phase ([1]; 20 μM PM2 alone, 6 h): 55.8%
G2/M-phase ([1]; 20 μM PM2 alone, 12 h): 30.1%
S-phase ([1]; 20 μM PM2 alone, 12 h): 35.1%
G2/M-phase ([1]; 20 μM PM2 alone, 24 h): 21.1%
S-phase ([1]; 20 μM PM2 alone, 24 h): 10.7%
G2/M-phase ([1]; 20 μM PM2 alone, 48 h): 20.6%
S-phase ([1]; 20 μM PM2 alone, 48 h): 23%
S-phase reduction / depletion ([1]; 2 Gy + 20 μM PM2): S-phase reduction occurred as early as 12 h post-treatment; also recorded: S-phase depletion at 24 h post-treatment
G2/M-phase cells versus untreated controls ([1]; 2 Gy + 20 μM PM2, throughout 48 h): More than twice as many cells
G2/M-phase [1, 9]: 39.9%
S-phase [1, 9]: 44.9%
G2/M-phase [1, 10]: 53.8%
S-phase [1, 10]: 17.3%
G2/M-phase [1, 11]: 42.7%
S-phase [1, 11]: 5.51%
G2/M-phase [1, 12]: 29.9%
S-phase [1, 12]: 17.5%
p53 expression ([2]; 20 μM PM2, 24 h): increased expression of p53
p53 expression, combination versus PM2 alone ([2]; 2 Gy + 20 μM PM2, 24 h): significant increase; also recorded: further increased wt p53 levels
increase in wt p53 levels following combination therapy ([2]; 2 Gy + 20 μM PM2, 24 h, normalized to controls): ~5 fold
GLB-1 expression, combination versus irradiated [3]: significant increase
GLB-1 expression versus irradiated and control, combination [4]: less pronounced and failed to reach significance
Noxa expression [5]: distinct increases
Noxa expression ([6]; 20 μM PM2, 72 h): distinct increases
Noxa increase, combination compared to PM2 therapy alone ([6]; 2 Gy + 20 μM PM2, p ≤ 0.01, n ≥ 3): 4 fold
Maximum time to termination ([7]; 2 × 2 Gy and 3 × PM2): 25 days
Median time to termination ([7]; 2 × 2 Gy and 3 × PM2): 21 days
spheroid response ([7]; 2 × 2 Gy/3 × 20 μM PM2, day 14): continuous growth inhibition throughout day 14
spheroid size of untreated controls ([7]; 3 × 2 Gy + single dose of PM2, day 14): 75%
increase of median time to termination compared to untreated controls ([7]; 3 × 2 Gy and 3 × PM2): 2 fold
Maximum time to termination ([7]; 3 × 2 Gy and 3 × PM2): 35 days
Median time to termination ([7]; 3 × 2 Gy and 3 × PM2): 28 days
spheroid response ([7]; 3 × 2 Gy/3 × 20 μM PM2, day 14): continuous growth inhibition throughout day 14
spheroid size of treated spheroids as % of untreated controls ([7]; 5 × 20 μM PM2 at 48 h intervals, day 14, no radiation): 57%
spheroid size of untreated controls ([7]; 5 × 2 Gy + single dose of PM2, day 14): 55%
Maximum time to termination ([7]; 5 × 2 Gy and 1 × PM2): 25 days
Median time to termination ([7]; 5 × 2 Gy and 1 × PM2): 21 days
Maximum time to termination ([7]; 5 × 2 Gy and 5 × PM2): Not reached
Median time to termination ([7]; 5 × 2 Gy and 5 × PM2): Not reached
spheroid response ([7]; 5 × 2 Gy/5 × 20 μM PM2): spheroid disintegration and cell death
Maximum time to termination ([7]; 5 × PM2, no radiation): 21 days
Median time to termination ([7]; 5 × PM2, no radiation): 21 days
CDI ([7]; Day 10, 1 × 20 μM PM2 + 1 × 2 Gy): 0.705
CDI ([7]; Day 10, 1 × 20 μM PM2 + 2 × 2 Gy): 0.507
CDI ([7]; Day 10, 1 × 20 μM PM2 + 3 × 2 Gy): 0.493
CDI ([7]; Day 10, 1 × 20 μM PM2 + 5 × 2 Gy): 0.472
CDI ([7]; Day 10, 2 × 20 μM PM2 + 2 × 2 Gy): 0.209
CDI ([7]; Day 10, 3 × 20 μM PM2 + 1 × 2 Gy): 0.412
CDI ([7]; Day 10, 3 × 20 μM PM2 + 2 × 2 Gy): 0.122
CDI ([7]; Day 10, 3 × 20 μM PM2 + 3 × 2 Gy): 0.244
CDI ([7]; Day 10, 5 × 20 μM PM2 + 1 × 2 Gy): 0.398
CDI ([7]; Day 10, 5 × 20 μM PM2 + 5 × 2 Gy): 0.201
CDI ([7]; Day 14, 1 × 20 μM PM2 + 1 × 2 Gy): 1.03
CDI ([7]; Day 14, 1 × 20 μM PM2 + 2 × 2 Gy): 0.93
CDI ([7]; Day 14, 1 × 20 μM PM2 + 3 × 2 Gy): 0.821
CDI ([7]; Day 14, 1 × 20 μM PM2 + 5 × 2 Gy): 0.815
CDI ([7]; Day 14, 2 × 20 μM PM2 + 2 × 2 Gy): 0.51
CDI ([7]; Day 14, 3 × 20 μM PM2 + 1 × 2 Gy): 0.944
CDI ([7]; Day 14, 3 × 20 μM PM2 + 2 × 2 Gy): 0.333
CDI ([7]; Day 14, 3 × 20 μM PM2 + 3 × 2 Gy): 0.182
CDI ([7]; Day 14, 5 × 20 μM PM2 + 1 × 2 Gy): 0.568
CDI ([7]; Day 14, 5 × 20 μM PM2 + 5 × 2 Gy): 0.023
effect on proliferation rate of spheroids ([7]; all combination treatments of PM2 and EBRT, prior to day 14): synergistic inhibitory effects
spheroid response (abstract) ([7]; combination of PM2 and EBRT): growth inhibition and complete spheroid disintegration
spheroid disintegration ([7]; five repeated doses of both PM2 (20 μM) and 2 Gy): 100%
spheroid growth inhibition ([7]; repeated PM2 doses at 48 h intervals, no radiation): did inhibit growth in a dose-dependent manner
spheroid growth inhibition ([7]; single 20 μM PM2, 48 h incubation, no radiation): failed to impair UM-SCC-74B spheroid growth
spheroid growth inhibition ([7]; single dose of PM2 with EBRT): greater inhibitory effects than either treatment alone
spheroid growth inhibition ([7]; two repeated doses of each of PM2 and EBRT (data not shown)): growth inhibition surpassing the standard 14-day assay
prolongation of median survival [8]: 50%
